For 34 molecules, EC50 results are on record in patent US20150274661A1, “INDOL-AMIDE COMPOUNDS AS BETA-AMYLOID INHBITORS” (Hoffmann-La Roche Inc., priority 2012, published 2015).

In this experiment the test system is Aβ42 secretion. In words: Cellular γ-secretase assay (inhibition of Aβ42 secretion). The class given is cell-based. As to conditions: Homo sapiens, 22 h, human neuroglioma H4 cells overexpressing human APP, 22 hours incubation. As for the experimental part: Cellular γ-Secretase Assay
The compounds were investigated in accordance with the test given hereinafter.
Human neuroglioma H4 cells overexpressing human APP were plated at 30,000 cells/well/200 μL in 96-well plates in IMDM media containing 10% FCS, […] Hygromycin B and incubated for 2 hours at 37° C., 5% CO2 prior to adding test compounds.
Compounds for testing were dissolved in 100% Me2SO yielding in a 10 mM stock solution. Typically 12 μL of these solutions were further diluted in 1000 μL of IMDM media (w/o FCS). Subsequent 1:1 dilutions gave a ten point dose response curve. 100 μL of each dilution was added to the cells in 96-well plates. Appropriate controls using vehicle only and reference compound were applied to this assay. The final concentration of Me2SO was 0.4%.
After incubation for 22 hours at 37° C., 5% CO2, 50 μL supernatant was transferred into round-bottom 96-well polypropylene plates for detection of Aβ42. 50 μL assay buffer (50 mM Tris/Cl, pH 7.4, 60 mM NaCl, 0.5% BSA, 1% TWEEN 20) was added to the wells followed by the addition of 100 μL of detection antibody (ruthenylated BAP15 0.0625 μg/mL in assay buffer). 50 μL of a premix of capture antibody (biotinylated 6E10 antibody, 1 μg/mL) and Streptavidin-coated magnetic beads (Dynal M-280, 0.125 mg/mL) were preincubated for 1 hour at room temperature before adding the assay plates. Assay plates were incubated on a shaker for 3 hours at room temperature and finally read in the Bioveris M8 Analyser according to the manufacturer's instructions (Bioveris).
IC50 values for inhibition of Aβ42 secretion were calculated by nonlinear regression fit analysis using XLfit 4.0 software (IDBS).
`O=C(Nc1cccc(F)c1)c1cc2cc(C3CC(=O)N(Cc4ccccc4)C3=O)ccc2[nH]1` (stereo not shown) [Example 17, 5-(1-Benzyl-2,5-dioxopyrrolidin-3-yl)-N-(3-fluorophenyl)-1H-indole-2-carboxamide]: the EC50 amounted to 8.46 µM.
As to `CC(C)C1(c2ccc3[nH]c(C(=O)Nc4ccc(F)c(F)c4)cc3c2)CNC(=O)C1` (stereo not shown) [Example 18, 5-(3-Isopropyl-5-oxo-pyrrolidin-3-yl)-1H-indole-2-carboxylic acid (3,4-difluoro-phenyl)-amide], a half-maximal effect (EC50) was put at 2.32 µM.
Regarding `CCC1(c2ccc3[nH]c(C(=O)Nc4cc(F)cc(F)c4)cc3c2)CCC(=O)NC1=O` (stereo not shown) [Example 19, 5-(3-Ethyl-2,6-dioxo-piperidin-3-yl)-1H-indole-2-carboxylic acid (3,5-difluoro-phenyl)-amide], the response was half-maximal at 2.63 µM (EC50).
As to `CC(C)N1CCC(c2ccc3[nH]c(C(=O)Nc4cccc(F)c4)cc3c2)CC1` [Example 20, 5-(1-Isopropyl-piperidin-4-yl)-1H-indole-2-carboxylic acid (3-fluoro-phenyl)-amide], the 50% effective concentration (EC50) was 0.832 µM.
`CC(C)N1CCCC(c2ccc3[nH]c(C(=O)Nc4cc(F)cc(F)c4)cc3c2)C1` (stereo not shown) [Example 21, 5-(1-Isopropyl-piperidin-3-yl)-1H-indole-2-carboxylic acid (3,5-difluoro-phenyl)-amide]: the EC50 came out at 0.177 µM.
Turning to `CC(C)N1CCC(c2ccc3[nH]c(C(=O)Nc4cccc(C(F)(F)F)c4)cc3c2)CC1` [Example 22, 5-(1-Isopropyl-piperidin-4-yl)-1H-indole-2-carboxylic acid (3-trifluoromethyl-phenyl)-amide], the midpoint of the response, the EC50, lay at 2.27 µM.
In turn, `CC(C)N1CCC(c2ccc3[nH]c(C(=O)Nc4cccc(Cl)c4)cc3c2)CC1` [Example 23, 5-(1-Isopropyl-piperidin-4-yl)-1H-indole-2-carboxylic acid (3-chloro-phenyl)-amide] displayed a 50% effective concentration (EC50) of 0.897 µM.
The molecule `CC(C)N1CCC(c2ccc3[nH]c(C(=O)Nc4ccccc4F)cc3c2)CC1` [Example 24, 5-(1-Isopropyl-piperidin-4-yl)-1H-indole-2-carboxylic acid (2-fluoro-phenyl)-amide] returned an EC50 of 19.4 µM.
Turning to `COc1cccc(NC(=O)c2cc3cc(C4CCN(C(C)C)CC4)ccc3[nH]2)c1` [Example 25, 5-(1-Isopropyl-piperidin-4-yl)-1H-indole-2-carboxylic acid (3-methoxy-phenyl)-amide], a half-maximal response (EC50) required 2.68 µM.
`COc1ccc(NC(=O)c2cc3cc(C4CCN(C(C)C)CC4)ccc3[nH]2)cc1` [Example 26, 5-(1-Isopropyl-piperidin-4-yl)-1H-indole-2-carboxylic acid (4-methoxy-phenyl)-amide] gave a half-maximal effective concentration (EC50) of 10.9 µM.
In the case of `CC(C)N1CCC(c2ccc3[nH]c(C(=O)Nc4ccc(C(C)(C)C)cc4)cc3c2)CC1` [Example 27, 5-(1-Isopropyl-piperidin-4-yl)-1H-indole-2-carboxylic acid (4-tert-butyl-phenyl)-amide], the EC50 amounted to 8.36 µM.
Turning to `CC(C)N1CCC(c2ccc3[nH]c(C(=O)Nc4ccc(F)c(F)c4)cc3c2)CC1` [Example 28, 5-(1-Isopropyl-piperidin-4-yl)-1H-indole-2-carboxylic acid (3,4-difluoro-phenyl)-amide], the EC50 was determined as 0.852 µM.
`CC(C)N1CCC(c2ccc3[nH]c(C(=O)Nc4ccc(F)cc4F)cc3c2)CC1` [Example 29, 5-(1-Isopropyl-piperidin-4-yl)-1H-indole-2-carboxylic acid (2,4-difluoro-phenyl)-amide]: the concentration giving a half-maximal response (EC50) amounted to 12.6 µM.
`CC(C)N1CCCC(c2ccc3[nH]c(C(=O)Nc4cc(F)cc(Cl)c4)cc3c2)C1` (stereo not shown) [Example 30, N-(3-Chloro-5-fluorophenyl)-5-(1-isopropylpiperidin-3-yl)-1H-indole-2-carboxamide]: the concentration for a half-maximal effect (EC50) worked out at 0.742 µM.
With `CC(C)N1CCCC(c2ccc3[nH]c(C(=O)Nc4cc(F)cc(C#N)c4)cc3c2)C1` (stereo not shown) [Example 31, 5-(1-Isopropyl-piperidin-3-yl)-1H-indole-2-carboxylic acid (3-cyano-5-fluoro-phenyl)-amide], the EC50 was determined as 2.38 µM.
`CC(C)N1CCC(c2ccc3[nH]c(C(=O)Nc4ccc(F)nc4)cc3c2)CC1` [Example 32, 5-(1-Isopropyl-piperidin-4-yl)-1H-indole-2-carboxylic acid (6-fluoro-pyridin-3-yl)-amide] had an EC50 of 8.15 µM.
Take `Cc1cccc(NC(=O)c2cc3cc(C4CCCN(C(C)C)C4)ccc3[nH]2)c1` (stereo not shown) [Example 33, 5-(1-Isopropyl-piperidin-3-yl)-1H-indole-2-carboxylic acid m-tolylamide]: the EC50 worked out at 1.58 µM.
For `Cc1cc(F)cc(NC(=O)c2cc3cc(C4CCCN(C(C)C)C4)ccc3[nH]2)c1` (stereo not shown) [Example 34, N-(3-Fluoro-5-methylphenyl)-5-(1-isopropylpiperidin-3-yl)-1H-indole-2-carboxamide] the value was 0.926 µM; for `O=C(Nc1ccc(F)cc1)c1cc2cc(C3CCN(C(=O)c4ccccc4)CC3)ccc2[nH]1` [Example 35, 5-(1-Benzoyl-piperidin-4-yl)-1H-indole-2-carboxylic acid (4-fluoro-phenyl)-amide], 1.39 µM.
For the molecule `CN1CCC(c2ccc3[nH]c(C(=O)Nc4ccc(F)cc4)cc3c2)CC1` [Example 36, 5-(1-Methyl-piperidin-4-yl)-1H-indole-2-carboxylic acid (4-fluoro-phenyl)-amide], a half-maximal response (EC50) required 1.09 µM.
Molecule `COCCN1CCC(c2ccc3[nH]c(C(=O)Nc4ccc(F)cc4)cc3c2)CC1` [Example 37, 5-[1-(2-Methoxy-ethyl)-piperidin-4-yl]-1H-indole-2-carboxylic acid (4-fluoro-phenyl)-amide] yielded a half-maximal effective concentration (EC50) of 1.43 µM.
Regarding `O=C(Nc1ccc(F)cc1)c1cc2cc(C3CCN(Cc4ccccc4)CC3)ccc2[nH]1` [Example 38, 5-(1-Benzyl-piperidin-4-yl)-1H-indole-2-carboxylic acid (4-fluoro-phenyl)-amide], the EC50 was 1.29 µM.
For `C=CCN1CCC(c2ccc3[nH]c(C(=O)Nc4ccc(F)cc4)cc3c2)CC1` [Example 39, 5-[1-Allyl-piperidin-4-yl]-1H-indole-2-carboxylic acid (4-fluoro-phenyl)-amide] the value was 1.32 µM; for `CCCN1CCC(c2ccc3[nH]c(C(=O)Nc4ccc(F)cc4)cc3c2)CC1` [Example 40, 5-[1-Propyl-piperidin-4-yl]-1H-indole-2-carboxylic acid (4-fluoro-phenyl)-amide], 1.7 µM.
The molecule `COC(=O)N1CCC(c2ccc3[nH]c(C(=O)Nc4ccc(F)cc4)cc3c2)CC1` [Example 41, 4-[2-(4-Fluoro-phenylcarbamoyl)-1H-indol-5-yl]-piperidine-1-carboxylic acid methyl ester] showed a half-maximal effective concentration (EC50) of 1.91 µM.
With `CCN1CCC(c2ccc3[nH]c(C(=O)Nc4ccc(F)cc4)cc3c2)CC1` [Example 42, 5-[1-Ethyl-piperidin-4-yl]-1H-indole-2-carboxylic acid (4-fluoro-phenyl)-amide], the concentration for a half-maximal effect (EC50) worked out at 1.91 µM.
For the molecule `COC(=O)CN1CCC(c2ccc3[nH]c(C(=O)Nc4ccc(F)cc4)cc3c2)CC1` [Example 43, {4-[2-(4-Fluoro-phenylcarbamoyl)-1H-indol-5-yl]-piperidin-1-yl}-acetic acid methyl ester], a half-maximal effect (EC50) was put at 2.47 µM.
Turning to `CCC(=O)N1CCC(c2ccc3[nH]c(C(=O)Nc4ccc(F)cc4)cc3c2)CC1` [Example 44, 5-(1-Propionyl-piperidin-4-yl)-1H-indole-2-carboxylic acid (4-fluoro-phenyl)-amide], the EC50 worked out at 4.38 µM.
`O=C(Nc1ccc(F)cc1)c1cc2cc(C3CCN(CCc4ccccc4)CC3)ccc2[nH]1` [Example 45, 5-(1-Phenethyl-piperidin-4-yl)-1H-indole-2-carboxylic acid (4-fluoro-phenyl)-amide] registered a concentration giving a half-maximal response (EC50) of 12.9 µM.
In turn, `CC(C)N1CCCC(c2ccc3[nH]c(C(=O)Nc4cccc(F)c4)cc3c2)C1` (stereo not shown) [Example 46, 5-(1-Isopropyl-piperidin-3-yl)-1H-indole-2-carboxylic acid (3-fluoro-phenyl)-amide] gave an EC50 of 0.588 µM.
As to `CC(C)N1CCCC(c2ccc3[nH]c(C(=O)Nc4ccc(F)cc4)cc3c2)C1` (stereo not shown) [Example 47, 5-(1-Isopropyl-piperidin-3-yl)-1H-indole-2-carboxylic acid (4-fluoro-phenyl)-amide], a half-maximal response (EC50) required 1.15 µM.
For `CC(C)N1CCC(c2ccc3[nH]c(C(=O)Nc4ccc(F)cc4)cc3c2)CC1` [Example 48, 5-(1-Isopropyl-piperidin-4-yl)-1H-indole-2-carboxylic acid (4-fluoro-phenyl)-amide] the value was 2.51 µM; for `CS(=O)(=O)N1CCCC(c2ccc3[nH]c(C(=O)Nc4cc(F)cc(F)c4)cc3c2)C1` (stereo not shown) [Example 49, 5-(1-Methanesulfonyl-piperidin-3-yl)-1H-indole-2-carboxylic acid (3,5-difluoro-phenyl)-amide], 0.148 µM.
`CC(C)S(=O)(=O)N1CCCC(c2ccc3[nH]c(C(=O)Nc4cc(F)cc(F)c4)cc3c2)C1` (stereo not shown) [Example 50, 5-[1-(Propane-2-sulfonyl)-piperidin-3-yl]-1H-indole-2-carboxylic acid (3,5-difluoro-phenyl)-amide] showed a concentration giving a half-maximal response (EC50) of 0.202 µM.
